{"source": "ChEMBL document CHEMBL3991601", "about": "“The target landscape of clinical kinase drugs” (Science, 2017)", "note": "Active and inactive are the calls of the source. For most assays here, no stated cut-off is given here; in the data, actives have a measured Kd and inactives only a lower limit."}
{"molecular_target": "Cyclin-dependent kinase 6 (Homo sapiens, UniProt Q00534)", "sequence (Q00534 whole entry)": "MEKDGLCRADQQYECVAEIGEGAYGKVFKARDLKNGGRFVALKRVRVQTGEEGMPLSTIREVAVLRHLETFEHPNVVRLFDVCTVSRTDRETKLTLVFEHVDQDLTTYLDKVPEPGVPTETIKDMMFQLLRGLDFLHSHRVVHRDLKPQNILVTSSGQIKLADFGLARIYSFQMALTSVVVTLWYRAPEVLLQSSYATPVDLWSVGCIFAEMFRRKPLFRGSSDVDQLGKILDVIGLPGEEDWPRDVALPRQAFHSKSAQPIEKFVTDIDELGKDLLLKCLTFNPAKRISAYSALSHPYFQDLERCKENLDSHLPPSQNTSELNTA", "details": "not given"}
{"smiles": "Cc1cn(-c2cc(NC(=O)c3ccc(C)c(Nc4nccc(-c5cccnc5)n4)c3)cc(C(F)(F)F)c2)cn1", "note": "[NILOTINIB]", "Kd": "> 30 µM (inactive)"}
{"smiles": "OCCn1cc(-c2cnc3nnn(Cc4ccc5ncccc5c4)c3n2)cn1", "note": "[PF-04217903]", "Kd": "> 30 µM (inactive)"}
{"smiles": "CNC(=O)c1ccc(C)c(-n2c(C)cc(OCc3ccc(F)cc3F)c(Br)c2=O)c1", "note": "[PH-797804]", "Kd": "> 30 µM (inactive)"}
{"smiles": "CNC(=O)c1cc(Oc2ccc(NC(=O)Nc3ccc(Cl)c(C(F)(F)F)c3)c(F)c2)ccn1", "note": "[REGORAFENIB]", "Kd": "> 30 µM (inactive)"}
{"molecular_target": "Dual specificity tyrosine-phosphorylation-regulated kinase 1A (Homo sapiens, UniProt Q13627)", "details": "not given"}
{"smiles": "CNC(=O)c1ccc(C)c(-n2c(C)cc(OCc3ccc(F)cc3F)c(Br)c2=O)c1", "note": "[PH-797804]", "Kd": "> 30 µM (inactive)"}
{"smiles": "CNC(=O)c1cc(Oc2ccc(NC(=O)Nc3ccc(Cl)c(C(F)(F)F)c3)c(F)c2)ccn1", "note": "[REGORAFENIB]", "Kd": "> 30 µM (inactive)"}
{"molecular_target": "Glycogen synthase kinase-3 beta (Homo sapiens, UniProt P49841)", "sequence (P49841 whole entry)": "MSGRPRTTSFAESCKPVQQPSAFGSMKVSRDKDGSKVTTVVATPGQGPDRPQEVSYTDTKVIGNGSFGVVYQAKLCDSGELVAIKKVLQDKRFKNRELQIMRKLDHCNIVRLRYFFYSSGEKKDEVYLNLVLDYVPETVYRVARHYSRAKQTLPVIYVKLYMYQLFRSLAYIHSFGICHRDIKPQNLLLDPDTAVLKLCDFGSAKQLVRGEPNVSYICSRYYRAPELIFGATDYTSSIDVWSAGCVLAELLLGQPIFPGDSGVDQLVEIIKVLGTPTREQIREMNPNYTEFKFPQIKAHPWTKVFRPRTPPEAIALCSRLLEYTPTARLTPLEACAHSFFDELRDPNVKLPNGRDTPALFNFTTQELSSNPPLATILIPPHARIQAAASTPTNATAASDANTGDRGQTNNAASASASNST", "details": "not given"}
{"smiles": "CNC(=O)c1ccc(C)c(-n2c(C)cc(OCc3ccc(F)cc3F)c(Br)c2=O)c1", "note": "[PH-797804]", "Kd": "> 30 µM (inactive)"}
{"smiles": "CNC(=O)c1cc(Oc2ccc(NC(=O)Nc3ccc(Cl)c(C(F)(F)F)c3)c(F)c2)ccn1", "note": "[REGORAFENIB]", "Kd": "> 30 µM (inactive)"}
{"molecular_target": "Mitogen-activated protein kinase 3 (Homo sapiens, UniProt P27361)", "sequence (P27361 whole entry)": "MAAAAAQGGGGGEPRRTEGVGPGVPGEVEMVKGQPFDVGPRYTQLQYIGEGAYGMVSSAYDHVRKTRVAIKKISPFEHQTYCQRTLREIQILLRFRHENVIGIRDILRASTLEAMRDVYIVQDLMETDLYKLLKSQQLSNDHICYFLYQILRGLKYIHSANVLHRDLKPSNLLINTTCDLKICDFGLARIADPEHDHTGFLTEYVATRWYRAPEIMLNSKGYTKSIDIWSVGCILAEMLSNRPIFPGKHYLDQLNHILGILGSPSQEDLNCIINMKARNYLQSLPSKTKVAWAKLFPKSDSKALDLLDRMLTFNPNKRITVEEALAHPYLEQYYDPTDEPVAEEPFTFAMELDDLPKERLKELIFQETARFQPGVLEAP", "details": "not given"}
{"smiles": "OCCn1cc(-c2cnc3nnn(Cc4ccc5ncccc5c4)c3n2)cn1", "note": "[PF-04217903]", "Kd": "> 30 µM (inactive)"}
{"smiles": "CNC(=O)c1ccc(C)c(-n2c(C)cc(OCc3ccc(F)cc3F)c(Br)c2=O)c1", "note": "[PH-797804]", "Kd": "> 30 µM (inactive)"}
{"smiles": "CNC(=O)c1cc(Oc2ccc(NC(=O)Nc3ccc(Cl)c(C(F)(F)F)c3)c(F)c2)ccn1", "note": "[REGORAFENIB]", "Kd": "> 30 µM (inactive)"}
{"molecular_target": "T1, RNA cytidine acetyltransferase (Homo sapiens, UniProt Q9H0A0)", "T1 sequence (Q9H0A0 whole entry)": "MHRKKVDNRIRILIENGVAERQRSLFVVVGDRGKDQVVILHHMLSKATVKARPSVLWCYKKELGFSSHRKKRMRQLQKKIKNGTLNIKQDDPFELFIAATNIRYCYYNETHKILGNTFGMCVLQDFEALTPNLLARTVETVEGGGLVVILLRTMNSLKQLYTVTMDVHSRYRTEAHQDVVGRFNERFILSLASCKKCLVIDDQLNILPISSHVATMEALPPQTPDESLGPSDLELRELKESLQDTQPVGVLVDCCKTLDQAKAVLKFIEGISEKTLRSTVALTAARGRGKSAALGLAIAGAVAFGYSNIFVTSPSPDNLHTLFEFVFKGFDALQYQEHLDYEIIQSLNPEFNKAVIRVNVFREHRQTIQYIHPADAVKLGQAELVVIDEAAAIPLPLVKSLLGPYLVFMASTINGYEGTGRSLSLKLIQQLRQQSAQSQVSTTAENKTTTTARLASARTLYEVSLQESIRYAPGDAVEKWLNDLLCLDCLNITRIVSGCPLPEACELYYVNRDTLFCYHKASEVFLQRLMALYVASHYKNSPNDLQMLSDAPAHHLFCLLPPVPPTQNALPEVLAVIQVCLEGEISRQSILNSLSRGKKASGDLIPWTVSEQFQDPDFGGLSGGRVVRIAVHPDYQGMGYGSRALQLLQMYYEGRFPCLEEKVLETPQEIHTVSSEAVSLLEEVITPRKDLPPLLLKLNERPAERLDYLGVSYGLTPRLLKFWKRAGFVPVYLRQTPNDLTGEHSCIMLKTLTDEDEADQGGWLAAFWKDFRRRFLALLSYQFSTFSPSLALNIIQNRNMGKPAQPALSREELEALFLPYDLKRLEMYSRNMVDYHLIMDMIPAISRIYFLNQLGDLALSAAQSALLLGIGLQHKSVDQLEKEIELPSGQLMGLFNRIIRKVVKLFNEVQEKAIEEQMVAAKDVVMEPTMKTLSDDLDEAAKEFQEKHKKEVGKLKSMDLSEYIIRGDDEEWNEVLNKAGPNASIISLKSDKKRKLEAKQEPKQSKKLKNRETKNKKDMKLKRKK", "details": "not given"}
{"smiles": "Cc1cn(-c2cc(NC(=O)c3ccc(C)c(Nc4nccc(-c5cccnc5)n4)c3)cc(C(F)(F)F)c2)cn1", "note": "[NILOTINIB]", "Kd": "> 30 µM (inactive)"}
{"smiles": "OCCn1cc(-c2cnc3nnn(Cc4ccc5ncccc5c4)c3n2)cn1", "note": "[PF-04217903]", "Kd": "> 30 µM (inactive)"}
{"smiles": "CNC(=O)c1ccc(C)c(-n2c(C)cc(OCc3ccc(F)cc3F)c(Br)c2=O)c1", "note": "[PH-797804]", "Kd": "> 30 µM (inactive)"}
{"smiles": "CNC(=O)c1cc(Oc2ccc(NC(=O)Nc3ccc(Cl)c(C(F)(F)F)c3)c(F)c2)ccn1", "note": "[REGORAFENIB]", "Kd": "> 30 µM (inactive)"}
{"molecular_target": "Platelet-derived growth factor receptor beta (Homo sapiens, UniProt P09619)", "sequence (P09619 whole entry)": "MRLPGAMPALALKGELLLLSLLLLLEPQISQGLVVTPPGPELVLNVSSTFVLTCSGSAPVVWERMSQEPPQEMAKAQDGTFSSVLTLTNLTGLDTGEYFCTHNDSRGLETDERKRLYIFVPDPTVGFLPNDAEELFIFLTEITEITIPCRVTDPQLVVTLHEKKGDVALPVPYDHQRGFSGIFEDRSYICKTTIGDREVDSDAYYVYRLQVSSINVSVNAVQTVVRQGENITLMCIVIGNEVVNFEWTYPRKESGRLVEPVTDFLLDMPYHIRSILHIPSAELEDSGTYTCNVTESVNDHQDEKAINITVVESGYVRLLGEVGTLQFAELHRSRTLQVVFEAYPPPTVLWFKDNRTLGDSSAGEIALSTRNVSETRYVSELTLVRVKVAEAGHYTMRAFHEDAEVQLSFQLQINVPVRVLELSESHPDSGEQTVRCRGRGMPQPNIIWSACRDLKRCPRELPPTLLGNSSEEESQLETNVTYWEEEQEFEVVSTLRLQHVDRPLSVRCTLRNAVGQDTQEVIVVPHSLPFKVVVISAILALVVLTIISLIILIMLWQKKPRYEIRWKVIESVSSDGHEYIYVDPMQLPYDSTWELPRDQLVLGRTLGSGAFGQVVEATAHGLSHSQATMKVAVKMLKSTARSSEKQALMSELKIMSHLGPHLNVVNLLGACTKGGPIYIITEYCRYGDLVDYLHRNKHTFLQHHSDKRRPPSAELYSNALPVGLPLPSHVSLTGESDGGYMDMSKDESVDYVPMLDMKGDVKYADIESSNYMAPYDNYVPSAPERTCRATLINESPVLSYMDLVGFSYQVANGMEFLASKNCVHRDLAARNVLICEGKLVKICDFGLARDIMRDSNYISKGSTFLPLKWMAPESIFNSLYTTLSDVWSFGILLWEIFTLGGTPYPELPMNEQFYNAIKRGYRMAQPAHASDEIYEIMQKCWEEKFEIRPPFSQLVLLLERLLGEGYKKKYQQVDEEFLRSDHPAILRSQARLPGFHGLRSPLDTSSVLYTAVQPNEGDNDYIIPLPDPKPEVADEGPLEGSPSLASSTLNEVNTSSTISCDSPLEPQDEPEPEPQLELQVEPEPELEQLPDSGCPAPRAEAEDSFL", "details": "not given"}
{"smiles": "CNC(=O)c1ccc(C)c(-n2c(C)cc(OCc3ccc(F)cc3F)c(Br)c2=O)c1", "note": "[PH-797804]", "Kd": "> 30 µM (inactive)"}
{"molecular_target": "Rho-associated protein kinase 2 (Homo sapiens, UniProt O75116)", "sequence (O75116 whole entry)": "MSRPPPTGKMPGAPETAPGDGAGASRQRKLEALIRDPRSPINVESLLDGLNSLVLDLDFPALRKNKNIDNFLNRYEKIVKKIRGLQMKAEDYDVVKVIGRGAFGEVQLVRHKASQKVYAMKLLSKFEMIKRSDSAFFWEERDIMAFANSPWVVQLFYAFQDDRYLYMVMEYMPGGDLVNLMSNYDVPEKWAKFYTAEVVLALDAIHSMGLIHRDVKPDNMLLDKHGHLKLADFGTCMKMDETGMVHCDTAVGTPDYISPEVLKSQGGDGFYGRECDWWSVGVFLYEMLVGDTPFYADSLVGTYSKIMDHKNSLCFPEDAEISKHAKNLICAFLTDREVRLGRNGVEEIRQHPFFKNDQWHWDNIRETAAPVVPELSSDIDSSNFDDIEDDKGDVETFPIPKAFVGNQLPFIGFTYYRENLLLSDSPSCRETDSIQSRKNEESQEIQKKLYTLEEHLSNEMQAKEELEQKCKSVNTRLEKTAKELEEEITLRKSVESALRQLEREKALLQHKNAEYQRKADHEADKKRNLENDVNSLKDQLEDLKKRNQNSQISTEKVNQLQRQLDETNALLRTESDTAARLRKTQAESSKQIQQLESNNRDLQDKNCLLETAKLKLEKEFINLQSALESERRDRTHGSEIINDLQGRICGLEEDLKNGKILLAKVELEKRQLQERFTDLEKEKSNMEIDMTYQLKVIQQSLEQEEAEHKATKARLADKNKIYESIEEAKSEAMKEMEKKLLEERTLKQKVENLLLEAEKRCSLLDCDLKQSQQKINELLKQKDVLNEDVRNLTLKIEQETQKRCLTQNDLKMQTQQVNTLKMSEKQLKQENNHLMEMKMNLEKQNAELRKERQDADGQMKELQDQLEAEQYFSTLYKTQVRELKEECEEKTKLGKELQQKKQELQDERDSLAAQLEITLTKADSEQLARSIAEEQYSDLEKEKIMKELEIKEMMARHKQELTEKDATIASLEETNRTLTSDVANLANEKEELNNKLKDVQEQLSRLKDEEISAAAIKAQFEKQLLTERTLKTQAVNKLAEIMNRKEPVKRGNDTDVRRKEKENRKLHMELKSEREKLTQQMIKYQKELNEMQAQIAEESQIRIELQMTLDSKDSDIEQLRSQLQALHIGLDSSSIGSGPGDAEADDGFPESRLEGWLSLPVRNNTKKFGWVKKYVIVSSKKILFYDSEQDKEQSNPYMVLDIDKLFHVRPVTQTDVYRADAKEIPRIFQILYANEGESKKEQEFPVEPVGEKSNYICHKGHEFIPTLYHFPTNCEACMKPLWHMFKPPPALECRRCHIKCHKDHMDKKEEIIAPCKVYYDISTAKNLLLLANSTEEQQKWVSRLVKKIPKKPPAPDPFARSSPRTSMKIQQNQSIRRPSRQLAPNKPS", "details": "not given"}
{"smiles": "OCCn1cc(-c2cnc3nnn(Cc4ccc5ncccc5c4)c3n2)cn1", "note": "[PF-04217903]", "Kd": "> 30 µM (inactive)"}
{"smiles": "CNC(=O)c1cc(Oc2ccc(NC(=O)Nc3ccc(Cl)c(C(F)(F)F)c3)c(F)c2)ccn1", "note": "[REGORAFENIB]", "Kd": "> 30 µM (inactive)"}
{"molecular_target": "Ribosomal protein S6 kinase beta-1 (Homo sapiens, UniProt P23443)", "sequence (P23443 whole entry)": "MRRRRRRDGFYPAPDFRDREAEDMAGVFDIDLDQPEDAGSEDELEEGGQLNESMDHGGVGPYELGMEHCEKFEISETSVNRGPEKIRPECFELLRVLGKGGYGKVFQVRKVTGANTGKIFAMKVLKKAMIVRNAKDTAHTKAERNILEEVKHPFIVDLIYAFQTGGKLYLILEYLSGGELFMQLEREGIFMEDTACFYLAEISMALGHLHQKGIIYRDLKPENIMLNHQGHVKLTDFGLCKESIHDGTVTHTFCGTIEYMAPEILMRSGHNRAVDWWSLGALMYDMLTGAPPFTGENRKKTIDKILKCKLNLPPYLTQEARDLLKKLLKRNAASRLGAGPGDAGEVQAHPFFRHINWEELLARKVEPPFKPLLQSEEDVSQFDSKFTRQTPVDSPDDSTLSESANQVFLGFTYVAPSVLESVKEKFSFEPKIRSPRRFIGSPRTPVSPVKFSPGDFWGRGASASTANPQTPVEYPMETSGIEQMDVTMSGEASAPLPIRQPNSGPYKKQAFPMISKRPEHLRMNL", "details": "not given"}
{"smiles": "OCCn1cc(-c2cnc3nnn(Cc4ccc5ncccc5c4)c3n2)cn1", "note": "[PF-04217903]", "Kd": "> 30 µM (inactive)"}
{"smiles": "CNC(=O)c1ccc(C)c(-n2c(C)cc(OCc3ccc(F)cc3F)c(Br)c2=O)c1", "note": "[PH-797804]", "Kd": "> 30 µM (inactive)"}
{"smiles": "CNC(=O)c1cc(Oc2ccc(NC(=O)Nc3ccc(Cl)c(C(F)(F)F)c3)c(F)c2)ccn1", "note": "[REGORAFENIB]", "Kd": "> 30 µM (inactive)"}
{"molecular_target": "T2, Signal recognition particle receptor subunit alpha (Homo sapiens, UniProt P08240)", "T2 sequence (P08240 whole entry)": "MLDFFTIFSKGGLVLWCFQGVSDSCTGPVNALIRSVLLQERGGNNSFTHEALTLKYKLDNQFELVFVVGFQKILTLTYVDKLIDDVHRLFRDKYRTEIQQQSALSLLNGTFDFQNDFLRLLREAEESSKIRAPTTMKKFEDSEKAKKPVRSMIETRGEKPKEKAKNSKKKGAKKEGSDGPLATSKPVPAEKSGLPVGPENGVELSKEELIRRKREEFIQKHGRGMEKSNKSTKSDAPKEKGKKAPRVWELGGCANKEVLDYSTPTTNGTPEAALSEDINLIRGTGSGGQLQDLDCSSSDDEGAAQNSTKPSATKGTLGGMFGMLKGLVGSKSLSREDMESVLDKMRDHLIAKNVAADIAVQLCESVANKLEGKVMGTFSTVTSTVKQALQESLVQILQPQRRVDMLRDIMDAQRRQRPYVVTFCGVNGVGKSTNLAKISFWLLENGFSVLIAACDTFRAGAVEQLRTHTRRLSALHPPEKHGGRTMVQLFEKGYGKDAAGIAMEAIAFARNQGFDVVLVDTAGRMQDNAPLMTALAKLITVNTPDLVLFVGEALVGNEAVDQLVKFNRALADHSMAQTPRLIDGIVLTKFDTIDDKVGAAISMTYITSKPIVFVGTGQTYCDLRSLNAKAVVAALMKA", "details": "not given"}
{"smiles": "Cc1cn(-c2cc(NC(=O)c3ccc(C)c(Nc4nccc(-c5cccnc5)n4)c3)cc(C(F)(F)F)c2)cn1", "note": "[NILOTINIB]", "Kd": "> 30 µM (inactive)"}
{"smiles": "CNC(=O)c1cc(Oc2ccc(NC(=O)Nc3ccc(Cl)c(C(F)(F)F)c3)c(F)c2)ccn1", "note": "[REGORAFENIB]", "Kd": "> 30 µM (inactive)"}
{"molecular_target": "T3, TGF-beta receptor type-1 (Homo sapiens, UniProt P36897)", "T3 sequence (P36897 whole entry)": "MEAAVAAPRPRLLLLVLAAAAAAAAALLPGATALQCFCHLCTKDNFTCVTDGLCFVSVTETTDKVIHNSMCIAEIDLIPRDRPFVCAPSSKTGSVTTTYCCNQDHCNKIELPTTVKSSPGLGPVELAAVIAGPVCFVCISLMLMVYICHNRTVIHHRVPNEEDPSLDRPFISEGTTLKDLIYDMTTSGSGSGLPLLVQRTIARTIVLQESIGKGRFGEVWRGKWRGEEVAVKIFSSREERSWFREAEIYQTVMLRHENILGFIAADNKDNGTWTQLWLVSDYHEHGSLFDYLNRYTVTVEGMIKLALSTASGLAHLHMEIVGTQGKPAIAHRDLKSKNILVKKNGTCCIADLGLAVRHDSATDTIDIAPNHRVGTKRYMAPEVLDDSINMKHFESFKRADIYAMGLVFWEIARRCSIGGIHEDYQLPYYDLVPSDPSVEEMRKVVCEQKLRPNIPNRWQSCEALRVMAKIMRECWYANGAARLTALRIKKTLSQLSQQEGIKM", "details": "not given"}
{"smiles": "OCCn1cc(-c2cnc3nnn(Cc4ccc5ncccc5c4)c3n2)cn1", "note": "[PF-04217903]", "Kd": "> 30 µM (inactive)"}
{"smiles": "CNC(=O)c1ccc(C)c(-n2c(C)cc(OCc3ccc(F)cc3F)c(Br)c2=O)c1", "note": "[PH-797804]", "Kd": "> 30 µM (inactive)"}
{"smiles": "CNC(=O)c1cc(Oc2ccc(NC(=O)Nc3ccc(Cl)c(C(F)(F)F)c3)c(F)c2)ccn1", "note": "[REGORAFENIB]", "Kd": "> 30 µM (inactive)"}
{"molecular_target": "T4, Uncharacterized protein FLJ45252 (Homo sapiens, UniProt Q6ZSR9)", "T4 sequence (Q6ZSR9 whole entry)": "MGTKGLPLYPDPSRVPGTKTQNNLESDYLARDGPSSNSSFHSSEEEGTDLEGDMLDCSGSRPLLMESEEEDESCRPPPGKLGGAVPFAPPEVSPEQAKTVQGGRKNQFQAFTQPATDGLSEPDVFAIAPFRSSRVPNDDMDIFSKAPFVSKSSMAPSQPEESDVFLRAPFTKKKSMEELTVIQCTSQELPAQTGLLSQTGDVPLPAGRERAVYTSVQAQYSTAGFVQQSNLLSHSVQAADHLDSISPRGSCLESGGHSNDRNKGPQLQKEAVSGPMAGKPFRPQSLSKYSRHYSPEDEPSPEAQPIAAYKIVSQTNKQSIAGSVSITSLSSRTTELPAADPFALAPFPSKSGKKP", "details": "read-out: Kd apparent; k-562, colo 205, sk-n-be(2) and mv-4-11"}
{"smiles": "Cc1cn(-c2cc(NC(=O)c3ccc(C)c(Nc4nccc(-c5cccnc5)n4)c3)cc(C(F)(F)F)c2)cn1", "note": "[NILOTINIB]", "Kd": "> 30 µM (inactive)"}
{"smiles": "OCCn1cc(-c2cnc3nnn(Cc4ccc5ncccc5c4)c3n2)cn1", "note": "[PF-04217903]", "Kd": "> 30 µM (inactive)"}
{"smiles": "CNC(=O)c1ccc(C)c(-n2c(C)cc(OCc3ccc(F)cc3F)c(Br)c2=O)c1", "note": "[PH-797804]", "Kd": "> 30 µM (inactive)"}
